Results reported in ChEMBL document CHEMBL4342511, “Discovery and Optimization of wt-RET/KDR-Selective Inhibitors of RETV804M Kinase” (ACS Med Chem Lett, 2020).
≈ marks a conversion by molar mass, not a printed value.

Key:
[1] = target: Proto-oncogene tyrosine-protein kinase receptor Ret (Homo sapiens, UniProt P07949, V804M)
Homo sapiens [2] = organism: Homo sapiens; assay: Selectivity index, ratio of IC50 for RET (unknown origin) expressed in BaF3 cells to IC50 for RET V804M mutant (unknown origin) expressed […] cells; format: cell-based
Homo sapiens [3] = organism: Homo sapiens; assay: Selectivity index, ratio of IC50 for N-terminal His6-tagged recombinant human KDR (790 to end residue) expressed in baculovirus in Sf21 insect cells to IC50 for recombinant N-Terminal GST-tagged human RET V804M mutant (658 to end residues)
Homo sapiens [4] = organism: Homo sapiens; assay: Selectivity index, ratio of IC50 for KDR (unknown origin) expressed in BaF3 cells to IC50 for RET V804M mutant (unknown origin) expressed […] cells; format: cell-based
[5] = Kinetic solubility of compound; format: physicochemical; details: read-out: Kinetic_solubility
Homo sapiens [6] = organism: Homo sapiens; assay: Selectivity index, ratio of IC50 for GST-tagged human RET expressed in baculovirus to IC50 for recombinant N-Terminal GST-tagged human RET V804M mutant (658 to end residues)
[7] = Apparent permeability in human Caco2 cells; format: ADME, cell-based; details: Caco-2
[8] = Efflux ratio of apparent permeability in human Caco2 cells; format: ADME, cell-based; details: Caco-2
[9] = Metabolic stability in mouse liver microsomes assessed as intrinsic clearance; format: ADME, Microsome; details: read-out: CLH

Proto-oncogene tyrosine-protein kinase receptor Ret, sequence (P07949 29-1114 V804M limits assumed): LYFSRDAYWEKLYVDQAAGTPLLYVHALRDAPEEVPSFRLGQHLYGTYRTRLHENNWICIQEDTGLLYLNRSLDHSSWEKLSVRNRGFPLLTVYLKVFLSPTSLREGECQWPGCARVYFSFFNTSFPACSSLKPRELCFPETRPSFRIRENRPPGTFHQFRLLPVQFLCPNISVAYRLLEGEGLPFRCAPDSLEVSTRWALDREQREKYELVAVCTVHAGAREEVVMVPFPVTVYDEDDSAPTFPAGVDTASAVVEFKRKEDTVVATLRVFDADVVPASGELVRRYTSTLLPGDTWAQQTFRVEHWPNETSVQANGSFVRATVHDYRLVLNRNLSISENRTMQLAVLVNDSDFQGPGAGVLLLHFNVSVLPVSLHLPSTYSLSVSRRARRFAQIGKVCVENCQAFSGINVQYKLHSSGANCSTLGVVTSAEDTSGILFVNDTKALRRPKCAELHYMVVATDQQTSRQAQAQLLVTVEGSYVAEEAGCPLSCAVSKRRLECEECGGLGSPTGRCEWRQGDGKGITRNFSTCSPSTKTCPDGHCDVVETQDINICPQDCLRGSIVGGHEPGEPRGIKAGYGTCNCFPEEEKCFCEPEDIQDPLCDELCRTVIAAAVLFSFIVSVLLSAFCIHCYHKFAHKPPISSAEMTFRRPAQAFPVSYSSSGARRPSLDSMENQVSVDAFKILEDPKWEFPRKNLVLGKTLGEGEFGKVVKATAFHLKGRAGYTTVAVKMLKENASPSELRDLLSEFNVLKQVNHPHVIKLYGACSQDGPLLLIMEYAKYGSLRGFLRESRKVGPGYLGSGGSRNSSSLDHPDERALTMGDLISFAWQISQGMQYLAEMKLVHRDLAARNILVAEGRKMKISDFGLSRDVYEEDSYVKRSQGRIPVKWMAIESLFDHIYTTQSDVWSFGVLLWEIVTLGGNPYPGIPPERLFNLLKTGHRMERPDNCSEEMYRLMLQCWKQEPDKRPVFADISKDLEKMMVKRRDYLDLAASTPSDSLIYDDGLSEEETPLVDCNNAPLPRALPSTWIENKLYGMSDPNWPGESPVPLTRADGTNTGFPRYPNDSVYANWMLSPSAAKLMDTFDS

Row | Structure (SMILES) | IC50 [1] [nM] | Ratio IC50 (Homo sapiens [2]) | Ratio IC50 (Homo sapiens [3]) | Ratio IC50 (Homo sapiens [4]) | solubility kinetic [5] [µM] | Ratio IC50 (Homo sapiens [6]) | Papp [7] [×10⁻⁶ cm/s] | efflux ratio [8] | microsomal CLint [9] [µL/min/mg]
1 | c1cc(CNc2ccn3ncc(-c4ccc5c(c4)OCO5)c3n2)ccn1 | 290 | 2.2 | 27 | 6.2 | 30 (≈ 10.4 µg/mL) | 0.64 | – | – | –
2 | c1cc2c(cc1-c1cnn3ccc(NC4CCNCC4)nc13)OCO2 | 880 | – | 17 | – | – | 1.2 | – | – | –
3 | c1cc2c(cc1-c1cnn3ccc(NCCN4CCCCC4)nc13)OCO2 | 660 | – | 34 | – | – | 5.3 | – | – | –
4 | NC(=O)c1cccc(-c2cnn3ccc(NCc4ccncc4)nc23)c1 | 4300 | – | 8 | – | – | – | – | – | –
5 | c1ccc(CNc2ccn3ncc(-c4ccc5c(c4)OCO5)c3n2)cc1 | 29000 | – | 2.3 | – | – | 0.16 | – | – | –
6 | NC(=O)c1ccc(-c2cnn3ccc(NCc4ccncc4)nc23)cc1 | 20 | 0.89 | 110 | 2.3 | – | 3.7 | – | – | –
7 | CC(=O)Nc1ccc(-c2cnn3ccc(NCc4ccncc4)nc23)cc1 | 6700 | – | 4.4 | – | – | 2.6 | – | – | –
8 | CN(C)C(=O)c1ccc(-c2cnn3ccc(NCc4ccncc4)nc23)cc1 | 7600 | – | 3.9 | – | – | 1.8 | – | – | –
9 | NC(=O)c1ccc(-c2cnn3ccc(NCc4ccccn4)nc23)cc1 | 44 | 0.9 | 22 | 2 | – | 19 | – | – | –
10 | O=C(O)c1ccc(-c2cnn3ccc(NCc4ccncc4)nc23)cc1 | 560 | – | 1.8 | – | – | 1.2 | – | – | –
11 | c1cc(CNc2ccn3ncc(-c4ccc5cn[nH]c5c4)c3n2)ccn1 | 300 | 1.9 | 83 | 1.9 | – | 18 | – | – | –
12 | CN(C)CCNc1ccn2ncc(-c3ccc4c(c3)OCO4)c2n1 | 91 | 9.8 | 540 | 13 | – | 21 | – | – | –
13 | NC(=O)c1ccc(-c2cnn3ccc(NCc4cccnc4)nc23)cc1 | 51 | 0.85 | 19 | 1.9 | – | 13 | – | – | –
14 | CN(C)CCCNc1ccn2ncc(-c3ccc4c(c3)OCO4)c2n1 | 19 | 32 | 410 | 76 | > 100 | 16 | 22.8 | 1.4 | 62
15 | c1cc2c(cc1-c1cnn3ccc(NCC4CCNCC4)nc13)OCO2 | 200 | 0.85 | 64 | 2.6 | – | 1.2 | – | – | –
16 | CN(C)CCNc1ccn2ncc(-c3ccc(C(N)=O)cc3)c2n1 | 350 | 0.3 | 54 | 0.83 | – | 4.7 | – | – | –
17 | CS(=O)(=O)Nc1ccc(-c2cnn3ccc(NCc4ccncc4)nc23)cc1 | 1500 | – | 29 | – | – | 0.28 | – | – | –
18 | c1cc(Nc2ccn3ncc(-c4ccc5c(c4)OCO5)c3n2)ccn1 | 63000 | – | 2.1 | – | – | 2.1 | – | – | –
19 | NS(=O)(=O)c1ccc(-c2cnn3ccc(NCc4ccncc4)nc23)cc1 | 360 | 1 | 220 | 1 | – | 1.3 | – | – | –
20 | OCCNc1ccn2ncc(-c3ccc4c(c3)OCO4)c2n1 | 130 | 1.5 | 19 | 1.5 | – | 15 | – | – | –
21 | c1ccc(CNc2ccn3ncc(-c4ccc5c(c4)OCO5)c3n2)nc1 | 39 | 3.1 | 100 | 7.6 | – | 14 | – | – | –
22 | CC(=O)Nc1cccc(-c2cnn3ccc(NCc4ccncc4)nc23)c1 | 1600 | – | 22 | – | – | 4 | – | – | –
23 | c1ccc(-c2cnn3ccc(NCc4ccncc4)nc23)cc1 | 1140 | – | 0.96 | – | – | 2.4 | – | – | –
